Reference: US10266526B2, “Substituted 1,2,3-triazoles as SMYD inhibitors for treating cancer” (EPIZYME, INC., priority 2014, dated 2019)

Each molecule was assayed against SMYD3 (Homo sapiens (Human), UniProt Q9H7B4) (assay: SMYD3 biochemical assay (SMYD3 enzyme assay on MEKK2 protein substrate, 3H-SAM scintillation proximity assay)). Conditions: Table 1A; average of n = 1 to n = 50; read-out: SMYD3 Biochem IC50.
Method in brief: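 Detection used scintillation proximity beads to capture ³H-methylated GST-MEKK2 after quench with 100 uM final cold SAM. The reaction was started by SAM/MEKK2 addition after a 30 min RT compound–enzyme preincubation. Enzyme was tag-free full-length human SMYD3 from E. coli, in buffer of 25 mM Tris-Cl pH 8.0, 1 mM TCEP, 0.005% BSG, 0.005% Tween 20.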

SMYD3, sequence (Q9H7B4 whole entry): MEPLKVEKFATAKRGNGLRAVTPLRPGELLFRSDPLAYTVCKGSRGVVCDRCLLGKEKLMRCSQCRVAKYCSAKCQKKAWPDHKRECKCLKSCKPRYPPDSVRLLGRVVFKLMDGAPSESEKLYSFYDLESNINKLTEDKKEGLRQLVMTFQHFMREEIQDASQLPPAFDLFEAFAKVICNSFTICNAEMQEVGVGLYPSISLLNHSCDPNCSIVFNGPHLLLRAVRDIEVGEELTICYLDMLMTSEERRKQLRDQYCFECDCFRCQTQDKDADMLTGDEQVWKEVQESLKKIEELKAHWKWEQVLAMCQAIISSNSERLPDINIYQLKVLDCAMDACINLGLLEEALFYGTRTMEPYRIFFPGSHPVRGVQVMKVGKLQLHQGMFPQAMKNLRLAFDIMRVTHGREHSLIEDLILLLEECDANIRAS

Point of comparison: CCc1cnc(C(=O)NC(C)C2CCN(C(=O)[C@H](C)N)CC2)s1 (stereo partly drawn) [compound 552, N-(1-(1-(L-alanyl)piperidin-4-yl)ethyl)-5-ethylthiazole-2-carboxamide], IC50 6.44 µM. Against it:
- CCc1cccc(C(=O)N[C@@H]2CCN(S(=O)(=O)CCCN)[C@H](C)C2)c1 (racemic) [compound 569, (±)-cis-N-(1-((3-aminopropyl)sulfonyl)-2-methylpiperidin-4-yl)-3-ethylbenzamide] — within 1.5-fold, 8.02 µM

Same assay, conditions: read-out: SMYD3 Biochem IC50

Point of comparison: N[C@H]1CC[C@H](NC(=O)c2ccc(N3CCCC3)cc2)CC1 [compound 280, N-((1r,4r)-4-aminocyclohexyl)-4-(pyrrolidin-1-yl)benzamide], IC50 48 µM. Against it:
- NCCC(=O)N[C@H]1CC[C@H](NC(=O)c2cncnc2O)CC1 [compound 510, N-((1r,4r)-4-(3-aminopropanamido)cyclohexyl)-4-hydroxypyrimidine-5-carboxamide] — higher, > 50 µM
- NCCC(=O)N[C@H]1CC[C@H](NC(=O)c2ccc3c(c2)CNC3=O)CC1 [compound 503, N-((1r,4r)-4-(3-aminopropanamido)cyclohexyl)-1-oxoisoindoline-5-carboxamide] — higher, > 100 µM
- NCCC(=O)N[C@H]1CC[C@H](NC(=O)c2noc(C3CC3)n2)CC1 [compound 485, N-((1r,4r)-4-(3-aminopropanamido)cyclohexyl)-5-cyclopropyl-1,2,4-oxadiazole-3-carboxamide] — 3.7-fold lower, 12.9 µM
- Cc1cc(C)c(C(=O)NC(C)C2CCN(C(=O)[C@H](C)N)CC2)c(=O)[nH]1 (stereo partly drawn) [compound 274, N-(1-(1-(L-alanyl)piperidin-4-yl)ethyl)-4,6-dimethyl-2-oxo-1,2-dihydropyridine-3-carboxamide] — higher, > 100 µM
- NCCC(=O)N[C@H]1CC[C@H](NC(=O)Cc2c[nH]c3ccccc23)CC1 [compound 195, N-((1r,4r)-4-(2-(1H-indol-3-yl)acetamido)cyclohexyl)-3-aminopropanamide] — higher, > 100 µM
- N[C@H]1CC[C@H](NC(=O)c2c[nH]cn2)CC1 [compound 521, N-((1r,4r)-4-aminocyclohexyl)-1H-imidazole-4-carboxamide] — higher, > 50 µM
- NCCC(=O)N[C@H]1CC[C@H](NC(=O)c2nccc3ccccc23)CC1 [compound 196, N-((1r,4r)-4-(3-aminopropanamido)cyclohexyl)isoquinoline-1-carboxamide] — higher, > 100 µM
- CC(NC(=O)c1ccc(O)nn1)C1CCN(C(=O)[C@H](C)N)CC1 (stereo partly drawn) [compound 191, N-(1-(1-(L-alanyl)piperidin-4-yl)ethyl)-6-hydroxypyridazine-3-carboxamide] — higher, > 100 µM
- CC1=NN(c2ccc(C(=O)N[C@H]3CC[C@H](N)CC3)cc2)C(=O)C1 [compound 403, N-((1r,4r)-4-aminocyclohexyl)-4-(3-methyl-5-oxo-4,5-dihydro-1H-pyrazol-1-yl)benzamide] — higher, > 100 µM
- N[C@H]1CC[C@H](NC(=O)c2cc(O)c3ccccc3n2)CC1 [compound 328, N-((1r,4r)-4-aminocyclohexyl)-4-hydroxyquinoline-2-carboxamide] — higher, > 100 µM
- N[C@H]1CC[C@H](NC(=O)c2cc3cccc(O)c3cc2O)CC1 [compound 460, N-((1r,4r)-4-aminocyclohexyl)-3,5-dihydroxy-2-naphthamide] — 2.3-fold lower, 20.7 µM
- Nc1cc(C(=O)N[C@H]2CC[C@H](N)CC2)ccn1 [compound 322, 2-amino-N-((1r,4r)-4-aminocyclohexyl)isonicotinamide] — higher, > 100 µM
- NCCC(=O)N[C@H]1CC[C@H](NC(=O)c2ccc(N3CCCC3)cc2)CC1 [compound 279, N-((1r,4r)-4-(3-aminopropanamido)cyclohexyl)-4-(pyrrolidin-1-yl)benzamide] — within 1.5-fold, 43.6 µM
- CC(NC(=O)c1ccnc(O)c1)C1CCN(C(=O)[C@H](C)N)CC1 (stereo partly drawn) [compound 250, N-(1-(1-(L-alanyl)piperidin-4-yl)ethyl)-2-hydroxyisonicotinamide] — higher, > 100 µM
- CC(NC(=O)c1cc2ccccc2[nH]1)C1CCN(C(=O)[C@H](C)N)CC1 (stereo partly drawn) [compound 232, N-(1-(1-(L-alanyl)piperidin-4-yl)ethyl)-1H-indole-2-carboxamide] — higher, > 100 µM
- CC(=O)Nc1ccc(C(=O)N[C@H]2CC[C@H](N)CC2)nc1 [compound 444, 5-acetamido-N-((1r,4r)-4-aminocyclohexyl)picolinamide] — higher, > 100 µM
- Cc1nn(C(C)C(=O)N[C@H]2CC[C@H](N)CC2)c(C)c1Br (some centres unmarked) [compound 454, N-((1r,4r)-4-aminocyclohexyl)-2-(4-bromo-3,5-dimethyl-1H-pyrazol-1-yl)propanamide] — higher, > 100 µM
- Cc1ccc(C(=O)N[C@H]2CC[C@H](NC(=O)CCN)CC2)cn1 [compound 382, N-((1r,4r)-4-(3-aminopropanamido)cyclohexyl)-6-methylnicotinamide] — higher, > 100 µM
- CC(NC(=O)c1cc2cccc(O)c2cc1O)C1CCN(C(=O)[C@H](C)N)CC1 (stereo partly drawn) [compound 441, N-(1-(1-(L-alanyl)piperidin-4-yl)ethyl)-3,5-dihydroxy-2-naphthamide] — within 1.5-fold, 37.5 µM
- NCCC(=O)N[C@H]1CC[C@H](NC(=O)c2ccc3c(c2)CCCC3)CC1 [compound 203, N-((1r,4r)-4-(3-aminopropanamido)cyclohexyl)-5,6,7,8-tetrahydronaphthalene-2-carboxamide] — 4.3-fold lower, 11.2 µM
- NCCC(=O)N[C@H]1CC[C@H](NC(=O)c2cccc(F)n2)CC1 [compound 422, N-((1r,4r)-4-(3-aminopropanamido)cyclohexyl)-6-fluoropicolinamide] — higher, > 100 µM
- CC(NC(=O)c1ccnc(O)c1)C1CCN(C(=O)[C@H](C)N)CC1 (stereo partly drawn) [compound 249, N-(1-(1-(L-alanyl)piperidin-4-yl)ethyl)-2-hydroxyisonicotinamide] — within 1.5-fold, 65.9 µM
- N[C@H]1CC[C@H](NC(=O)c2cc(O)nc3ccccc23)CC1 [compound 201, N-((1r,4r)-4-aminocyclohexyl)-2-hydroxyquinoline-4-carboxamide] — higher, > 100 µM
- Cc1nscc1C(=O)NC(C)C1CCN(C(=O)[C@H](C)N)CC1 (stereo partly drawn) [compound 258, N-(1-(1-(L-alanyl)piperidin-4-yl)ethyl)-3-methylisothiazole-4-carboxamide] — higher, > 100 µM
- CC(NC(=O)[C@H]1CC[C@H](N)CC1)C1CCN(C(=O)[C@H](C)N)CC1 (stereo partly drawn) [compound 262, (1r,4S)-N-(1-(1-(L-alanyl)piperidin-4-yl)ethyl)-4-aminocyclohexane-1-carboxamide] — higher, > 100 µM
- NCCC(=O)N[C@H]1CC[C@H](NC(=O)c2ccc3c(c2)C(=O)C(=O)N3)CC1 [compound 504, N-((1r,4r)-4-(3-aminopropanamido)cyclohexyl)-2,3-dioxoindoline-5-carboxamide] — 8.9-fold lower, 5.38 µM
- CC(NC(=O)c1ccncc1F)C1CCN(C(=O)[C@H](C)N)CC1 (stereo partly drawn) [compound 267, N-(1-(1-(L-alanyl)piperidin-4-yl)ethyl)-3-fluoroisonicotinamide] — higher, > 100 µM
- CC(NC(=O)c1ccc(-n2cnnc2)cc1)C1CCN(C(=O)[C@H](C)N)CC1 (stereo partly drawn) [compound 226, N-(1-(1-(L-alanyl)piperidin-4-yl)ethyl)-4-(4H-1,2,4-triazol-4-yl)benzamide] — higher, > 100 µM

Same assay, conditions: read-out: SMYD3 Biochem IC50 (μM)*

Point of comparison: O=C(NC1CCNCC1)c1ccc2ncc(=O)[nH]c2c1 [compound 46, 3-oxo-N-(piperidin-4-yl)-3,4-dihydroquinoxaline-6-carboxamide], IC50 63.7 µM. Against it:
- N[C@H]1CC[C@H](NC(=O)c2cncc(F)c2)CC1 [compound 159, N-((1r,4r)-4-aminocyclohexyl)-5-fluoronicotinamide] — higher, > 100 µM
- CCCCC1CC1C(=O)N[C@H]1CC[C@H](N)CC1 (some centres unmarked) [compound 53, N-((1r,4r)-4-aminocyclohexyl)-2-butylcyclopropane-1-carboxamide] — 1.9-fold higher, 122 µM
- N[C@H]1CC[C@H](NC(=O)Cc2c[nH]c3ccccc23)CC1 [compound 168, N-((1r,4r)-4-aminocyclohexyl)-2-(1H-indol-3-yl)acetamide] — higher, > 100 µM
- Cc1n[nH]c(C)c1C(=O)N[C@H]1CC[C@H](NC(=O)CCN)CC1 [compound 181, N-((1r,4r)-4-(3-aminopropanamido)cyclohexyl)-3,5-dimethyl-1H-pyrazole-4-carboxamide] — higher, > 100 µM
- CCc1nc(C(=O)N[C@H]2CC[C@H](N)CC2)co1 [compound 16, N-((1r,4r)-4-aminocyclohexyl)-2-ethyloxazole-4-carboxamide] — 2-fold higher, 128 µM
- CN1C(=O)Cc2cc(C(=O)NC3CCN(C(=O)[C@@H](N)Cc4ccc(O)cc4)CC3)ccc21 [compound 82, N-(1-(L-tyrosyl)piperidin-4-yl)-1-methyl-2-oxoindoline-5-carboxamide] — 7.3-fold lower, 8.7 µM
- Cc1cc(C(=O)N[C@H]2CC[C@H](N)CC2)n(-c2ccccc2)n1 [compound 28, N-((1r,4r)-4-aminocyclohexyl)-3-methyl-1-phenyl-1H-pyrazole-5-carboxamide] — 1.7-fold higher, 111 µM
- NCCC(=O)N[C@H]1CC[C@H](NC(=O)c2ccc(S(N)(=O)=O)cc2)CC1 [compound 156, N-((1r,4r)-4-(3-aminopropanamido)cyclohexyl)-4-sulfamoylbenzamide] — higher, > 100 µM
- N[C@@H](Cc1c[nH]c2ccccc12)C(=O)N1CCC(CNC(=O)c2ccc3c(c2)CC(=O)N3)CC1 [compound 103, N-((1-(L-tryptophyl)piperidin-4-yl)methyl)-2-oxoindoline-5-carboxamide] — 23-fold lower, 2.74 µM
- N[C@H]1CC[C@H](NC(=O)c2ccc(-c3ccccc3)cc2)CC1 [compound 155, N-((1r,4r)-4-aminocyclohexyl)-[1,1′-biphenyl]-4-carboxamide] — within 1.5-fold, 79.2 µM
- CC(=O)Nc1ccc(S(=O)(=O)N2CCC(NC(=O)c3cccnc3)CC2)cc1 [compound 3, N-(1-((4-acetamidophenyl)sulfonyl)piperidin-4-yl)nicotinamide] — higher, > 100 µM
- CC(=O)c1c[nH]c(C(=O)N[C@H]2CC[C@H](N)CC2)c1 [compound 64, 4-acetyl-N-((1r,4r)-4-aminocyclohexyl)-1H-pyrrole-2-carboxamide] — 2.1-fold higher, 134 µM
